# Results reported in patent US11155517B2, “4-substituted phenylamine derivatives and their use to protect crops by fighting undesired phytopathogenic micoorganisms” (PI INDUSTRIES LTD., priority 2016, dated 2021).
# Legend:
# Assay type in all cases: cell-based
# [1] = test system: Botrytis cinerea; test: Botrytis cinerea (gray mold) in vitro test, radial growth on Potato Dextrose Agar; details: 168 h, 300 ppm, seven days, 22° C., read-out: % (control) compared to the untreated check (radial growth)
# [2] = test system: Rhizoctonia solani; test: Rhizoctonia solani (rice sheath blight/potato black scurf) in vitro test, radial growth on Potato Dextrose Agar; details: 168 h, 300 ppm, seven days, 25° C., read-out: % control compared to the untreated check (radial growth)
# [3] = test system: Colletotrichum capsici; test: Colletotrichum capsici (anthracnose) in vitro test, radial growth on Potato Dextrose Agar; details: Colletotrichum truncatum, 168 h; 300 ppm; seven days, 25° C.; read-out: % control compared to the untreated check (radial growth)
# [4] = test system: Fusarium culmorum; test: Fusarium culmorum (foot rot of cereals) in vitro test, radial growth on Potato Dextrose Agar; details: Fusarium culmorum, 168 h, read-out: % control compared to the untreated check (radial growth)
# [5] = test system: Septoria lycopersici; test: Septoria lycopersici (leaf spot of tomato) in vitro test, radial growth on Potato Dextrose Agar; details: 168 h, seven days, 25° C., read-out: % control compared to the untreated check (radial growth)
# [6] = test system: Alternaria solani; test: Alternaria solani (early blight of tomato/potato) in vitro test, radial growth on Potato Dextrose Agar; details: 168 h, 300 ppm, seven days, 25° C., read-out: % control compared to the untreated check (radial growth)
# [7] = test system: Pyricularia oryzae; test: microbe, parasite or virus in culture; details: 168 h, read-out: % control compared to the untreated check (radial growth)
Compound,inhibition of growth at 300 ppm [1],inhibition of growth at 300 ppm [2],inhibition of growth at 300 ppm [3],inhibition of growth at 300 ppm [4],inhibition of growth at 300 ppm [5],inhibition of growth at 300 ppm [6],inhibition of growth at 300 ppm [7]
"CCN(C)C=Nc1cc(Cl)c(Cc2cccc(Cl)c2)cc1C [Compound 258, N′-(5-chloro-4-(3-chlorobenzyl)-2-methylphenyl)-N-ethyl-N-methylformimidamide]",> 80%,> 80%,> 80%,75%,> 70%,> 75%,> 75%
"CCN(C)C=Nc1cc(C)c(Cc2ccc(Cl)c(OC(F)(F)F)c2)cc1C [Compound 145, N′-(4-(4-chloro-3-(trifluoromethoxy)benzyl)-2,5-dimethylphenyl)-N-ethyl-N-methylformimidamide]",> 80%,> 80%,> 80%,75%,> 70%,> 75%,> 75%
"Cc1cc(N=CNC(C)C)c(C)cc1Cc1ccccc1Cl [Compound 67, N′-(4-(2-chlorobenzyl)-2,5-dimethylphenyl)-N-isopropylformimidamide]",> 80%,> 80%,> 80%,75%,> 70%,> 75%,> 75%
"CCN(C)C=Nc1cc(C)c(Cc2ccccc2Br)cc1C [Compound 154, N′-(4-(2-bromobenzyl)-2,5-dimethylphenyl)-N-ethyl-N-methylformimidamide]",> 80%,> 80%,> 80%,75%,> 70%,> 75%,> 75%
"CCN(C)C=Nc1cc(C)c(Cc2ccccc2OC(F)(F)F)cc1F [Compound 207, N-ethyl-N′-(2-fluoro-5-methyl-4-(2-(trifluoromethoxy)benzyl)phenyl)-N-methylformimidamide]",> 80%,> 80%,> 80%,75%,> 70%,> 75%,> 75%
"C=CCN(C)C=Nc1cc(C)c(Cc2ccccc2F)cc1C [Compound 83, N-allyl-N′-(4-(2-fluorobenzyl)-2,5-dimethylphenyl)-N-methylformimidamide]",> 80%,> 80%,> 80%,75%,> 70%,> 75%,> 75%
"CCN(C)C=Nc1cc(C)c(Cc2ccccc2C)cc1F [Compound 212, N-ethyl-N′-(2-fluoro-5-methyl-4-(2-methylbenzyl)phenyl)-N-methylformimidamide]",> 80%,> 80%,> 80%,75%,> 70%,> 75%,> 75%
"CCN(C)C=Nc1cc(C)c(Cc2cc(F)cc(OC)c2)cc1Cl [Compound 169, N′-(2-chloro-4-(3-fluoro-5-methoxybenzyl)-5-methylphenyl)-N-ethyl-N-methylformimidamide]",> 80%,> 80%,> 80%,75%,> 70%,> 75%,> 75%
"CCN(C)C=Nc1cc(C)c(Cc2cccc(Cl)c2)cc1C1CC1 [Compound 199, N′-(4-(3-chlorobenzyl)-2-cyclopropyl-5-methylphenyl)-N-ethyl-N-methylformimidamide]",> 80%,> 80%,> 80%,75%,> 70%,> 75%,> 75%
